# What was measured:
# [1] = system: human lower esophageal sphincter (LES) tissues; assay: Ex vivo relaxation of carbachol-pre-contracted human lower esophageal sphincter (LES) muscle strips, organ bath; type: cell-based
# Method: The objective of this study was to determine the relaxation effects of two sGC stimulators, Compound A and Compound B (depicted below) on human lower esophageal sphincter (LES) tissues ex vivo. Human lower esophageal sphincter muscle strips were mounted in a wire myograph apparatus and pre-contracted with carbachol (Cch). A cumulative concentration response curve (CCRC) of Compound A and Compound B was then performed on the tissues. The concentration response was performed with the compounds alone, and/or with the test compounds in the presence of a fixed concentration of the NO donor DETA-NONOate.
# Compound A and Compound B were stored at room temperature. On each experimental day, 10 mM stock of the test compound was prepared in DMSO. Further dilutions up to 0.1 μM were made serially in ethanol, and subsequently in distilled water, depending on solubility of the compounds in those solvents. Compound A and Compound B Vehicle solutions were made by following the same serial dilution methods
# DETA-NONOate was stored at −20° C. On each experimental day, a stock solution of 100 mM was prepared in Phosphate Buffered Saline (PBS), pH 8 (Boston Bioproducts). A 1:10 dilution from the stock was made in PBS pH 8, to obtain a concentration of 10 mM.
# SNP was stored at −20° C. On each experimental day, a stock solution of 100 mM was prepared in distilled water. 25 μl of the 100 mM stock was added to each bath for a final concentration of 100 μM in bath.
# Tissues were obtained postmortem. Only macroscopically normal tissue that was obtained from donors with no known recent history of gastrointestinal disease.
# Human LES mucosa-free muscle strips, of approximately 15 mm in length and 2-3 mm width were dissected free from surrounding tissue and mounted on tissue posts in 25 mL organ baths (Panlab 16 channel automated organ bath and thermostatic controller) containing physiological saline solution (PSS; composition: 119.0 mM NaCl, 4.70 mM KCl, 1.20 mM MgSO4, 24.9 mM NaHCO3, 1.20 mM KH2PO4, 2.50 mM CaCl2, 11.1 mM glucose), aerated with 95% O2/5% CO2, warmed and maintained at approximately 37° C. The PSS solution was supplemented with 1 μM indomethacin. The LES strips were mounted on the tissue posts and allowed to equilibrate for approximately 30 minutes.
# The LES strips were set to a tension of 2.0 g+0.2 g. Baths were washed approximately every 15 minutes over a 60-minute period, with re-tensioning to 2.0±0.2 g if tension dropped below 1.0 g.
# The viability of the LES muscle strips was tested by application of 80 mM KCl, looking for maximum contractility response. Upon plateau all baths were washed three times with PSS and the tension was allowed to return to baseline levels. The strips that responded to the KCl functional check were used for CCh-induced contractions.
# For each one of compounds A and B, experiments were conducted with LES tissues from two human donors on two separate days.
# Upon stabilization of baseline tension, each of the following experiments was allocated to one bath such that 9 or more muscle strips were set up for each compound on each experimental day.
# Compound A Experiments with tissues from Donor 1: • 1. CCRC to DETA-NO vehicle • 2. CCRC to Compound A vehicle • 3. CCRC to DETA-NO • 4. CCRC to DETA-NO • 5. CCRC to Compound A • 6. CCRC to Compound A • 7. Since DETA-NO relaxed LES, a CCRC to Compound A was performed in the presence of DETA-NO at a sub-threshold concentration (1 μM, determined in conditions 3 and 4) • 8. CCRC to Compound A in the presence of DETA-NO ([…]) • 9. CCRC to Compound A vehicle in the presence of DETA-NO ([…]).
# Compound A Experiments with tissues from Donor 2: • 1. CCRC to Compound A vehicle • 2. CCRC to Compound A vehicle • 3. CCRC to Compound A vehicle in the presence of 10 μM DETA-NO • 4. CCRC to Compound A vehicle in the presence of 30 μM DETA-NO • 5. CCRC to Compound A • 6. CCRC to Compound A • 7. CCRC to Compound A in the presence of 10 μM DETA-NO • 8. CCRC to Compound A in the presence of 10 μM DETA-NO • 9. […]
# achalasia patients = settings: report from 2000; cited from earlier work
# [2] = 10 μM compound in the presence of 30 μM DETA-NO
# [3] = in the presence of 30 μM DETA-NO
smiles,measurement,setting,value
COC(=O)N(C)c1c(N)nc(-c2nn(Cc3ccccc3F)c3ncccc23)nc1N [Compound C],maximum relaxation relative to isoprenaline,[1]; [2],90%
same,EC50,[1]; [3],500 nM
C[C@@]1(C(F)(F)F)C(=O)Nc2nc(-c3nn(Cc4ncccc4F)c4ncc(F)cc34)nc(NCCC(F)(F)F)c21 [Compound D],maximum relaxation relative to isoprenaline,[1]; [2],80%
same,EC50,[1]; [3],1600 nM
"NCCN(CCN)/[N+]([O-])=N/O [DETA-NO, diethylenetriamine/NO, reference compound]",mean percentage relaxation,"[1]; 10 μM DETA-NO alone, second donor, N=5",8%
same,mean relaxation relative to isoprenaline,"[1]; 30 μM DETA-NO alone, Compound B experiments, N=12",7.6%
same,mean percentage relaxation,"[1]; 30 μM DETA-NO alone, second donor, N=4",13%
Fc1ccccc1Cn1nc(-c2nc(C(F)(F)F)n[nH]2)c2cccnc21 [Compound E],maximum relaxation relative to isoprenaline,[1]; [2],89%
same,EC50,[1]; [3],530 nM
CCCc1nn(C)c2c(=O)[nH]c(-c3cc(S(=O)(=O)N4CCN(C)CC4)ccc3OCC)nc12 [sildenafil],effect on LES pressure,achalasia patients,able to reduce LES pressure
same,effect on clinical symptoms,achalasia patients,clinical symptoms were not improved
NC(=O)[C@](O)(CNc1nc(-c2cc(-c3ccon3)n(Cc3ccccc3F)n2)ncc1F)C(F)(F)F [Compound B],maximum relaxation relative to isoprenaline,[1]; [2],77%
same,maximum relaxation relative to isoprenaline,"[1]; 10 μM compound, absence of NO, N=8",47%
same,EC50,[1]; [3],1700 nM
OC(CNc1nc(-c2cc(-c3ccon3)n(Cc3ccccc3F)n2)ncc1F)(C(F)(F)F)C(F)(F)F [Compound A],relaxation,"[1]; 10 μM compound in the presence of 1 μM DETA-NO, donor 1",16%
same,maximum relaxation,"[1]; 10 μM compound in the presence of 10 μM DETA-NO, donor 2, N=4",38%
same,maximum relaxation,"[1]; 10 μM compound, absence of NO, first donor, N=2",49%
same,maximum relaxation,"[1]; 10 μM compound, absence of NO, second donor, N=2",31%
same,maximum relaxation,"[1]; in the presence of 30 μM DETA-NO, donor 2, N=3",51%

# Reference: US20180344735A1, “USE OF sGC STIMULATORS FOR THE TREATMENT OF GASTROINTESTINAL SPHINCTER DYSFUNCTION” (Ironwood Pharmaceuticals, Inc., priority 2015, published 2018)
